Drawing on ChEMBL document CHEMBL5576090, “Structural Diversification of Pyrazinone Metabolites via Spontaneous Oxa-Michael Addition in Staphylococcus xylosus” (2024), this text covers MIC and Activity for 9 compounds.

Residues, ends and D or L forms follow the SMILES beside them. *: point of attachment. Boc = CC(C)(C)OC(=O)* Where only a bound is given, the exact number is not on record here.

Holding throughout (assay type): functional
One assay concerns Acinetobacter baumannii. The experiment in a line: Antibacterial activity against Acinetobacter baumannii measured after 12 hrs.
The next assay concerns Bacillus subtilis. In words: Antibacterial activity against Bacillus subtilis measured after 12 hrs.
The test system of another assay is Staphylococcus aureus. The experiment in a line: Antibacterial activity against methicillin-resistant Staphylococcus aureus measured after 12 hrs.
The test system of the next assay is Escherichia coli. In words: Antibacterial activity against Escherichia coli measured after 12 hrs.
The next assay concerns Saccharomyces cerevisiae. In words: Antifungal activity against Saccharomyces cerevisiae measured after 24 hrs.
A short description of assay [1]: Antimigratory activity against mouse MTV/TM-011 cells assessed as wound closure measured after 24 hrs by optical microscopic analysis relative to control. On the set-up: concentration or dose not given beside the values.
Assay [2] in a line: Antimigratory activity against mouse MTV/TM-011 cells assessed as wound closure at 20 uM measured after 24 hrs by optical microscopic analysis relative to control.

The MIC is the smallest concentration in the dilution series that meets the test's criterion for growth inhibition. Take `CC(C)(O)c1ncc(Cc2ccc(O)cc2)[nH]c1=O`: the MIC against Acinetobacter baumannii, in the assay on Bacillus subtilis, in the assay on Staphylococcus aureus, in the assay with Escherichia coli and against Saccharomyces cerevisiae was more than 100 µM each time. The Activity in assay [1] came to 65%.

For the compound `CC(C)[C@H](NC(=O)OC(C)(C)C)C(=O)N[C@H](C=O)Cc1ccccc1` (Boc-Val-Phe-aldehyde), in assay [2], the Activity is on record as 65%. Further, the MIC against Acinetobacter baumannii, against Bacillus subtilis, against Staphylococcus aureus, with Escherichia coli and against Saccharomyces cerevisiae was more than 100 µM throughout.

As for `COC(C)(C)c1ncc(Cc2ccc(O)cc2)[nH]c1=O`, the MIC against Acinetobacter baumannii, in the assay on Bacillus subtilis, in the assay with Staphylococcus aureus, with Escherichia coli and in the assay on Saccharomyces cerevisiae was more than 100 µM throughout. The Activity in assay [1] was 65%.

Consider `COC(C)(C)c1ncc(Cc2ccccc2)[nH]c1=O`, for which the MIC against Acinetobacter baumannii, in the assay with Bacillus subtilis, in the assay with Staphylococcus aureus, against Escherichia coli and in the assay with Saccharomyces cerevisiae was more than 100 µM throughout. Also, the Activity in assay [1] was 65%.

As to `CC(C)c1ncc(Cc2ccc(O)cc2)[nH]c1=O`, the MIC against Acinetobacter baumannii, in the assay on Bacillus subtilis, in the assay with Staphylococcus aureus, in the assay with Escherichia coli and in the assay with Saccharomyces cerevisiae was more than 100 µM each time. Besides, the Activity in assay [1] came out at 65%.

Take `O=c1[nH]cc(F)c(=O)[nH]1` [FLUOROURACIL]: the Activity in assay [1] stood at 65%.

On to `CC(C)c1ncc(Cc2ccccc2)nc1O`, for which the MIC in the assay on Acinetobacter baumannii, against Bacillus subtilis, with Staphylococcus aureus, with Escherichia coli and in the assay with Saccharomyces cerevisiae was more than 100 µM each time. In addition, the Activity in assay [1] came to 72%.

For `CC(C)Cc1cnc(C(C)C)c(=O)[nH]1`, the MIC in the assay on Acinetobacter baumannii, with Bacillus subtilis, against Staphylococcus aureus, against Escherichia coli and with Saccharomyces cerevisiae was more than 100 µM throughout. Besides, in assay [1], the Activity is reported as 65%.

As to `CC(C)(O)c1ncc(Cc2ccccc2)[nH]c1=O`, the MIC against Acinetobacter baumannii, against Bacillus subtilis, in the assay on Staphylococcus aureus, against Escherichia coli and against Saccharomyces cerevisiae was more than 100 µM throughout. In addition, the Activity in assay [1] is listed as 70%.
